This is an account of results in ChEMBL document CHEMBL3507680, “University of Dundee, Gates Library screen for HepG2 cell viability”.

Each structure is given as a SMILES string.

A short description of this data set: Human HepG2 cell viability assay in 384 well format. It counts as toxicity, cell-based. Also on record: dose 125 nL, time 70.5 hour; cytotoxicity at 70.5 h: concentration not given beside the values. The settings on record: HepG2 cells, read-out: Inhibition.

As to `CN1C(=O)CCC12CCN(S(=O)(=O)c1ccccc1)CC2`, the cytotoxicity at 70.5 h is -13.4%.

On to `CCN1C(=O)C[C@@H]2[C@@H]1CCN2S(=O)(=O)c1ccccc1`, for which the cytotoxicity at 70.5 h was -12.3%.

Take `CC(=O)N1CC2(CCN(S(=O)(=O)N(C)C)CC2)C2(CCNC2=O)C1` (centres undefined): the cytotoxicity at 70.5 h was -1.55%.

As for `Cc1ccccc1NC(=O)N1CC[C@@H]2CN(C)S(=O)(=O)[C@@H]2CC1`, the cytotoxicity at 70.5 h was -8.26%.

Consider `Cc1oncc1C(=O)N1CC2CC1(C(=O)NCc1ccco1)C2`, for which the cytotoxicity at 70.5 h was -10.9%.

Take `COc1cc(N2CCC3(CC2)CC(N2CCOCC2)CO3)ncn1` (centres undefined): the cytotoxicity at 70.5 h was -2.9%.

As to `Cc1ccc(C(=O)N2C[C@H]3CNC[C@H]3C2)cn1`, the cytotoxicity at 70.5 h came to 25.5%.

Consider `NC1CCc2c(ccc(=O)n2CC2CC2)C1` (centres undefined), for which the cytotoxicity at 70.5 h is 27.6%.

In the case of `O=C(CC1CC1)N1C[C@H]2CN(CC3CC3)C(=O)[C@H]2C1`, the cytotoxicity at 70.5 h was -1.89%.

As for `CC(C)CN1CCNC(=O)C12CCN(S(=O)(=O)c1ccc(F)cc1)CC2`, the cytotoxicity at 70.5 h is -3.61%.

`CC(C)NC(=O)C1CCC2(CCNCC2)C1` (centres undefined): the cytotoxicity at 70.5 h was -1.82%.

For the compound `O=S(=O)(C1CC1)N1CCO[C@H]2[C@H](OCC3CC3)CC[C@@H]21`, the cytotoxicity at 70.5 h was determined as 16.9%.

Regarding `N#Cc1cccc(C(=O)N2CCn3c(Cn4cncn4)cnc3C2)c1`, the cytotoxicity at 70.5 h is -5.58%.

For `O=C(c1ccccc1)N1Cc2nccn2CC(Cn2ncccc2=O)C1` (centres undefined), the cytotoxicity at 70.5 h is -6.78%.

As for `O=c1cccnn1CC1CN(c2ncc(F)cn2)Cc2nccn2C1` (centres undefined), the cytotoxicity at 70.5 h is -10.5%.

Consider `O=C(CC1CC1)N1Cc2nccn2CC(Cn2ncccc2=O)C1` (centres undefined), for which the cytotoxicity at 70.5 h is -6.18%.

For the compound `Cc1ccc(C(=O)N2CCc3ncc(Cn4cccn4)n3CC2)o1`, the cytotoxicity at 70.5 h was -3.58%.

On to `CC(=O)NCC(=O)N1CCC2(CC1)NC(=O)CC2c1cnn(C)c1` (centres undefined), for which the cytotoxicity at 70.5 h was -8.17%.

Turning to `C1CC(CN2C[C@@H]3C[C@@H](c4nnc(C5CC5)o4)O[C@@H]3C2)CCO1`, the cytotoxicity at 70.5 h was -7.69%.

On to `O=C(NC1CCCC1)c1cc2c(s1)CCN2C(=O)c1ccccc1`, for which the cytotoxicity at 70.5 h is 0.186%.

For the compound `COCCN1CCCc2sc(C(=O)NCC3CCCO3)nc21` (centres undefined), the cytotoxicity at 70.5 h is 31.2%.

As for `COCCN1Cc2ccccc2C2(CCN(C(=O)c3ccco3)CC2)C1`, the cytotoxicity at 70.5 h stood at 1.21%.

As to `O=C(NCC1CCCO1)c1nc2c(s1)CCCN2Cc1ccccc1` (centres undefined), the cytotoxicity at 70.5 h was -4.02%.

For the compound `CNC(=O)[C@H]1C[C@@H]2CN(C(=O)c3ccoc3)C[C@@H]2N1S(C)(=O)=O`, the cytotoxicity at 70.5 h was -12%.

For the compound `CNC(=O)[C@H]1C[C@@H]2CN(C(=O)c3ccc(C)o3)C[C@@H]2N1S(C)(=O)=O`, the cytotoxicity at 70.5 h is -9.33%.

As to `CC1c2ncc(Cn3cncn3)n2CCN1C(=O)[C@H]1CCCO1` (some centres undefined), the cytotoxicity at 70.5 h was -8.44%.

As for `Cn1cc(CN2CCC3(CC2)CN(C(=O)c2cnccn2)CCO3)cn1`, the cytotoxicity at 70.5 h is -4.88%.

For the compound `O=C(C1CCOC1)N1CCN(Cc2cccnc2)c2ncccc2C1` (centres undefined), the cytotoxicity at 70.5 h was -7.36%.

Regarding `CC1c2ncc(Cn3cncn3)n2CCN1C(=O)c1ccsc1` (centres undefined), the cytotoxicity at 70.5 h is -4.72%.

On to `CC1c2ncc(Cn3cncn3)n2CCN1C(=O)c1ccccn1` (centres undefined), for which the cytotoxicity at 70.5 h was 31.8%.

For the compound `CN(C)C(=O)N1C[C@@H](C(=O)NCc2ccco2)C[C@H]2OCC[C@H]21`, the cytotoxicity at 70.5 h is -4.06%.

For `CCOCC1CN(C(=O)c2ccnnc2)Cc2cnn(C)c21` (centres undefined), the cytotoxicity at 70.5 h is -4.89%.

`O=C(N1CCCC1)N1CCOCC2(C1)CN(c1ccccc1)C(=O)CO2` (centres undefined): the cytotoxicity at 70.5 h was -3.56%.

For `O=C(c1cccs1)N1CCOCC2(C1)CN(c1ccccc1)C(=O)CO2` (centres undefined), the cytotoxicity at 70.5 h is -9.8%.

For `CC(C)Nc1nc(N2CCCC2)nc2c1CN(C)CC2`, the cytotoxicity at 70.5 h is -9.83%.

Turning to `COCC(=O)N1CCC2(C1)c1ccccc1S(=O)(=O)N2CCC(C)C` (centres undefined), the cytotoxicity at 70.5 h was -5.31%.

For `O=C(c1cc[nH]n1)N1CCOCC2(C1)CN(c1ccccc1)C(=O)CO2` (centres undefined), the cytotoxicity at 70.5 h was -12.1%.

As for `CCn1ncc2c1C(COC)CN(Cc1ccsc1)C2` (centres undefined), the cytotoxicity at 70.5 h was determined as 1.82%.

Turning to `O=C(C1CC1)N1CC2(CCNCC2)C1`, the cytotoxicity at 70.5 h is -8.48%.

For the compound `O=C(N1CCOCC1)N1CCCC2(CCCNC2)C1` (centres undefined), the cytotoxicity at 70.5 h was found to be 8.83%.

For `Cc1ccc(C(=O)N2CCc3c(CNc4ncccn4)cncc3C2)o1`, the cytotoxicity at 70.5 h was -10.9%.

For `CC(C)C(=O)N1CCc2c(CN(C)Cc3ccco3)cncc2C1`, the cytotoxicity at 70.5 h is -9.73%.

On to `COc1cc(N2CCC3(CC2)CC(N2CCOCC2)C3)ncn1`, for which the cytotoxicity at 70.5 h was -16%.

With `O=C(NC1CC1)N1CCC2(CC1)C(=O)NCCN2Cc1ccccc1`, the cytotoxicity at 70.5 h is -13.6%.

With `COc1ccc(C[C@H]2CN(C3CCOCC3)CC[C@H]2OCC2CC2)cc1`, the cytotoxicity at 70.5 h was 20%.

`COc1ccc(CN2C[C@@H]3CN(Cc4ccoc4)C[C@@H]3C2=O)cc1`: the cytotoxicity at 70.5 h was -6.31%.

`O=C(C1CCC2(CCN(CC3CCOCC3)CC2)O1)N1CCCCO1` (centres undefined): the cytotoxicity at 70.5 h was -5.73%.

On to `c1ccc(C[C@H]2CN(C3CCOCC3)CC[C@H]2OCC2CC2)cc1`, for which the cytotoxicity at 70.5 h is -8.83%.

With `CN1CCC2(CCCN(c3nccc(C(F)(F)F)n3)C2)CC1`, the cytotoxicity at 70.5 h is -11.3%.

Turning to `CN(C)C[C@@H]1CCC[C@@H]2CN(c3ncccn3)C[C@@H]21`, the cytotoxicity at 70.5 h was -13%.

Take `CN(C)C[C@@H]1CCC[C@@H]2CN(c3cccnc3)C[C@@H]21`: the cytotoxicity at 70.5 h was -1.5%.

For `COCCN(C)C[C@@H]1CCC[C@@H]2CN(c3ncccn3)C[C@@H]21`, the cytotoxicity at 70.5 h was -0.79%.

In the case of `Cc1cccc(C(=O)N2C[C@@H]3CCN(C(C)C)C[C@@H]3C2)c1`, the cytotoxicity at 70.5 h amounted to 19%.

For the compound `Cc1ccc(CN2C(=O)CC[C@]23CC[C@@H](NCC2CCOC2)CC3)cc1` (some centres undefined), the cytotoxicity at 70.5 h was 18.5%.

With `CC(=O)N1CCC2(CN(CC3CCCC3)C2)C1`, the cytotoxicity at 70.5 h is -3.32%.

As to `CCN1CC(=O)NCC12CCN(C(=O)c1ccno1)C2` (centres undefined), the cytotoxicity at 70.5 h stood at 2.94%.

As to `CCN(C)C1COC2(CCN(C(=O)c3ccc(Cl)cc3)CC2)C1` (centres undefined), the cytotoxicity at 70.5 h was -9.04%.

On to `O=C1CC[C@]2(CC[C@@H](NC3CCOC3)CC2)N1Cc1ccccc1` (some centres undefined), for which the cytotoxicity at 70.5 h was -1.97%.

Regarding `Cc1ccc(CN2CCc3[nH]nc(C(=O)N(C)C)c3C2)o1`, the cytotoxicity at 70.5 h was -0.827%.

In the case of `c1coc(CN2CCC3(CCOCC3COCC3CC3)CC2)c1` (centres undefined), the cytotoxicity at 70.5 h turned out to be 2.33%.

Regarding `CC(=O)NCC(=O)N1Cc2nccn2CC(COc2cccnc2)C1` (centres undefined), the cytotoxicity at 70.5 h is -10.5%.

Turning to `c1cncc(N2CCCC3(CCN(CC4CCCO4)CC3)C2)c1` (centres undefined), the cytotoxicity at 70.5 h is -7.19%.

For `Cc1cnc(N2Cc3nccn3CC(Cn3ncccc3=O)C2)nc1` (centres undefined), the cytotoxicity at 70.5 h was -1%.

For the compound `O=C(NCc1ccco1)[C@H]1C[C@@H]2CCN(c3cccc(F)c3)C[C@H]2O1`, the cytotoxicity at 70.5 h was -5.03%.

Take `O=C(c1cnccn1)N1CCCC2(CCN(Cc3ccsc3)CC2)C1`: the cytotoxicity at 70.5 h was found to be 3.52%.

Turning to `CNC(=O)[C@H]1C[C@@H]2CN(C(=O)c3ccncc3)C[C@@H]2N1S(C)(=O)=O`, the cytotoxicity at 70.5 h amounted to 22.4%.

As to `CC1c2ncc(Cn3cncn3)n2CCN1CC1CCOCC1` (centres undefined), the cytotoxicity at 70.5 h was -5.6%.

Turning to `O=C(c1ccco1)N1CCOCC2(C1)CN(c1cccnc1)C(=O)CO2` (centres undefined), the cytotoxicity at 70.5 h is -3.1%.

For `O=C(NC1CC1)N1CCOCC2(CCN(Cc3cccs3)C2)C1` (centres undefined), the cytotoxicity at 70.5 h is -16%.

As to `COc1cc(N2CCC3(CC2)CC(N2CCN(C)CC2)CO3)ncn1` (centres undefined), the cytotoxicity at 70.5 h was -20.9%.

As for `Cc1ccc(CN2CCC3(CC2)C(=O)N(CC(C)C)CCN3C)o1`, the cytotoxicity at 70.5 h is -10.1%.

Regarding `O=C(C[C@H]1[C@H]2CN(Cc3ccncc3)C[C@@H]12)N1CCCC1`, the cytotoxicity at 70.5 h was 20.1%.

With `O=C1CC[C@]2(CC[C@@H](NC3CCOC3)CC2)N1Cc1ccncc1` (some centres undefined), the cytotoxicity at 70.5 h is -2.28%.

Regarding `Cn1cc(N2C(=O)CC[C@@H]3[C@H]2CCN3CCc2ccccc2)cn1`, the cytotoxicity at 70.5 h was 16.8%.

For `CN(C)C1COC2(CCN(Cc3nccs3)CC2)C1` (centres undefined), the cytotoxicity at 70.5 h was -4.71%.

In the case of `Cn1nccc1-c1ccc2nc(C3CCN(CC4CC4)CC3)nn2c1`, the cytotoxicity at 70.5 h was -12.2%.

Take `O=C1CC(c2ccncc2)C2(CCN(CC3CC3)CC2)N1` (centres undefined): the cytotoxicity at 70.5 h was 14.8%.

As to `O=C(CC1CC1)N1CCN(Cc2ccncc2)c2ncccc2C1`, the cytotoxicity at 70.5 h was -11.9%.

With `Cc1nc(CN2CCc3cc(C(=O)O)c(N(C)C)nc3CC2)cs1`, the cytotoxicity at 70.5 h was -5.8%.

As to `O=C(c1ccnnc1)N1CCN(Cc2ccncc2)c2ncccc2C1`, the cytotoxicity at 70.5 h was -6.87%.

Turning to `c1cnn(CCCO[C@@H]2CC[C@H]3[C@H]2OCCN3CC2CC2)c1`, the cytotoxicity at 70.5 h was -7.2%.

For the compound `COCC(=O)N1CCN(Cc2cccnc2)c2ncccc2C1`, the cytotoxicity at 70.5 h was 1.38%.

Regarding `CN(Cc1cccnc1)[C@@H]1CN(C(=O)NC2CC2)[C@@H]2CCCO[C@H]12`, the cytotoxicity at 70.5 h was -6.43%.

`Cc1nc(CN2C(=O)CCC23CCN(Cc2cccn2C)CC3)cs1`: the cytotoxicity at 70.5 h was -9.94%.

As to `CN(Cc1cccnc1)[C@@H]1CN(C(=O)c2ccoc2)[C@@H]2CCCO[C@H]12`, the cytotoxicity at 70.5 h was -11.9%.

Turning to `O=C(C1CC1)N1CCN(Cc2ccncc2)c2ncccc2C1`, the cytotoxicity at 70.5 h is -10.1%.

Take `O=C(N1CCCO1)[C@@]12CCO[C@@H]1CCN(Cc1cccnc1)C2`: the cytotoxicity at 70.5 h is -9.68%.

For the compound `CCOCC1CN(C(=O)Cc2ccccn2)Cc2cnn(C)c21` (centres undefined), the cytotoxicity at 70.5 h was -3.1%.

For `CC1c2ncc(CNC(=O)C3CC3)n2CCN1Cc1ccccn1` (centres undefined), the cytotoxicity at 70.5 h came to 0.0373%.

As for `c1ccc(OC[C@]23COC[C@H]2CN(C2CCOCC2)C3)nc1`, the cytotoxicity at 70.5 h is -9.47%.

Regarding `Cc1ccc(CN2CCc3[nH]nc(C(=O)N4CCN(C)CC4)c3C2)o1`, the cytotoxicity at 70.5 h was 23.5%.

As to `CN(Cc1cccnc1)C1COC2(CCN(Cc3nccs3)CC2)C1` (centres undefined), the cytotoxicity at 70.5 h was -11%.

On to `Cn1ccnc1CN1CC[C@H]2CO[C@H](CNc3ncccn3)[C@H]2C1`, for which the cytotoxicity at 70.5 h is -5.82%.

In the case of `O=C(c1ccncc1)N1CCN(Cc2cccnc2)c2ncccc2C1`, the cytotoxicity at 70.5 h is -8.91%.
